Like-named read-outs stand apart in the source and are kept apart here.
Columns and labels:
[1] = target: T1, human CRTH2 expression cell KB8 (Homo sapiens, UniProt Q9Y5Y4); experiment: CRTH2 binding test (3H-PGD2 binding to KB8 cells); details: 3H-PGD2 5 nM, 4° C., one hour
T1 construct: host or cells: KB8 cells (human CRTH2 expression cell)
T1 sequence (Q9Y5Y4 1-395): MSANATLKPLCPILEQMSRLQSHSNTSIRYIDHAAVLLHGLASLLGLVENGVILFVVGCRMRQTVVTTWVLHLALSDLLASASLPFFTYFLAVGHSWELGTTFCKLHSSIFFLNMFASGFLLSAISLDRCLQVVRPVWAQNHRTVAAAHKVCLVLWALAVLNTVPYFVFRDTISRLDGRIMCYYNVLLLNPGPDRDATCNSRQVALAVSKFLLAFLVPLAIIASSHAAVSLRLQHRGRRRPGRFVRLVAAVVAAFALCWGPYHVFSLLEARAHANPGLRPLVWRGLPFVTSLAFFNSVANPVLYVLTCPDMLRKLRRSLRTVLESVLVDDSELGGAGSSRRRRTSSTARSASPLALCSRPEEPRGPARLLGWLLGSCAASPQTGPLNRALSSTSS
Experimental: CRTH2 binding inhibitory activity of the compound of the present invention was considered by using a binding test between human CRTH2 expression cell KB8 (BML, INC.) and ^3H-labeled prostaglandin D2 (hereinafter, abbreviated as ^3H-PGD2, manufactured by GE Healthcare).
KB8 was suspended in a reaction buffer solution (Hank's balanced salt solution (Invitrogen) containing 10 mM HEPES (Invitrogen)), which was dispensed in a 96 well plate (Coaster) so that 2×10^5 cells/well are placed. Furthermore, the compound of the present invention and ^3H-PGD2 (final concentration: 5 nM) were added, stirred, and incubated at 4° C.
One hour later, cells were collected on GF/C Filter Plate (PerkinElmer) that had been pre-coated with 0.5% polyethyleneimine solution (SIGMA) by using a Cell Harvester (Packard BioScience), and the radioactivity of the cells was measured by using Top count NXT (PerkinElmer) (a value measured herein was represented by a measurement value “a”). The same procedure was carried out in the absence of the compound, and a measurement value “b” was obtained; and the same procedure was carried out in the absence of the compound and in the presence of non-labeled PGD2 (final concentration: 50 μM), a measurement value “c” was obtained.
The binding inhibition rate of the compound was calculated by the following calculation formula: Bonding inhibitory rate(%)=[1−(a−c)/(b−c)]×100
That is to say, by using binding inhibition rates of compounds to be tested having various concentrations, the IC50 value was calculated according to a dose-dependent inhibition curve analyzed by using XLfit (IDBS) as a data analysis software, and the calculated value was defined as an indicator of the inhibitory activity. In Table 9, A denotes an inhibitory activity showing the IC50 value of less than 50 nM; B denotes an inhibitory activity showing the IC50 value of 50 nM or greater and less than 500 nM; C denotes an inhibitory activity showing the IC50 value of 500 nM or greater and less than 1000 nM; and D denotes an inhibitory activity showing the IC50 value of 1000 nM or greater.

CRTH2 (KB8 cells) = target: T2, CRTH2 (KB8 cells) (Homo sapiens, UniProt Q9Y5Y4); experiment: CRTH2 antagonist test (PGD2-induced intracellular calcium ion concentration increase in KB8 cells); assay type: cell-based; details: PGD2 final concentration 100 nM, Fluo-4-AM fluorescence, read-out: antagonist activity (IC50 value, inhibition of calcium ion concentration increase)
T2 construct: host or cells: KB8 cells (human CRTH2 expression cell)
T2 sequence (Q9Y5Y4 1-395): T1 sequence (Q9Y5Y4 1-395)
How it was run: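 Fluo-4-AM-loaded KB8 cells in HBSS with 10 mM HEPES and 1 mM CaCl2 received compound plus PGD2 (final 100 nM); peak fluorescence followed over time. Inhibition was computed against no-compound and unlabelled-PGD2 controls, and IC50 obtained from a dose-response curve.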

[2] = IC50 class, read-out: binding inhibitory activity
[3] = read-out: CRTH2 binding inhibitory activity IC50 value

| Compound | IC50 [1, 2] | IC50 (CRTH2 (KB8 cells)) | IC50 [1, 3] |
| --- | --- | --- | --- |
| CC(C)(C)OC(=O)Nc1ccc(C(=O)c2ncc(CC(=O)O)c3ccccc23)cc1 [Example 1, [1-({4-[(tert-butoxycarbonyl)amino]phenyl}carbonyl)isoquinolin-4-yl]acetic acid] | < 50 nM | 50 to 500 nM |  |
| O=C(O)Cc1cnc(C(=O)c2ccc(NC(=O)c3ccc(Cl)c(Cl)c3)cc2)c2ccccc12 [Example 2, {1-[(4-{[(3,4-dichlorophenyl)carbonyl]amino}phenyl)carbonyl]isoquinolin-4-yl}acetic acid] | < 50 nM | < 50 nM |  |
| O=C(O)Cc1cnc(C(=O)c2ccc(NC(=O)C3(c4ccc(Cl)c(Cl)c4)CC3)cc2)c2ccccc12 [Example 5] | < 50 nM | 50 to 500 nM |  |
| O=C(O)Cc1cnc(C(=O)c2ccc(NC(=O)/C=C/c3ccc(Cl)c(Cl)c3)cc2)c2ccccc12 [Example 6] | < 50 nM | < 50 nM |  |
| COc1ccc(C(=O)Nc2ccc(C(=O)c3ncc(CC(=O)O)c4ccccc34)cc2)cc1 [Example 7] | < 50 nM | < 50 nM |  |
| O=C(O)Cc1cnc(C(=O)c2ccc(NC(=O)c3ccc(Oc4ccccc4)cc3)cc2)c2ccccc12 [Example 9] | < 50 nM | 50 to 500 nM |  |
| O=C(O)Cc1cnc(C(=O)c2ccc(NC(=O)c3ccc(-c4ccccc4)cc3)cc2)c2ccccc12 [Example 10] | < 50 nM | < 50 nM |  |
| CN(C)c1ccc(C(=O)Nc2ccc(C(=O)c3ncc(CC(=O)O)c4ccccc34)cc2)cc1 [Example 12] | < 50 nM | < 50 nM |  |
| O=C(O)Cc1cnc(C(=O)c2ccc(NC(=O)c3ccccn3)cc2)c2ccccc12 [Example 16] | < 50 nM |  |  |
| O=C(O)Cc1cnc(C(=O)c2ccc(NC(=O)c3cc4ccccc4[nH]3)cc2)c2ccccc12 [Example 18] | < 50 nM | < 50 nM | 3.5 nM |
| CC(=O)Nc1ccc(C(=O)c2ncc(CC(=O)O)c3ccccc23)cc1 [Example 19] | 50 to 500 nM |  |  |
| O=C(O)Cc1cnc(C(=O)c2ccc(NC(=O)C3CC3)cc2)c2ccccc12 [Example 20] | < 50 nM |  |  |
| O=C(O)Cc1cnc(C(=O)c2ccc(NC(=O)CC3CCCCC3)cc2)c2ccccc12 [Example 21] | < 50 nM | 50 to 500 nM |  |
| O=C(O)Cc1cnc(C(=O)c2ccc(NC(=O)Cc3ccc(-c4ccccc4)cc3)cc2)c2ccccc12 [Example 22] | < 50 nM | 50 to 500 nM |  |
| O=C(O)Cc1cnc(C(=O)c2ccc(NC(=O)c3cccc(Cl)c3)cc2)c2ccccc12 [Example 27] | < 50 nM | < 50 nM |  |
| O=C(O)Cc1cnc(C(=O)c2ccc(NC(=O)c3ccc(Cl)cc3)cc2)c2ccccc12 [Example 29] | < 50 nM | < 50 nM |  |
| O=C(O)Cc1cnc(C(=O)c2ccc(NC(=O)c3ccc(F)c(Cl)c3)cc2)c2ccccc12 [Example 34] | < 50 nM | < 50 nM |  |
| O=C(O)Cc1cnc(C(=O)c2ccc(NC(=O)c3cc4ccccc4o3)cc2)c2ccccc12 [Example 50] | < 50 nM | < 50 nM |  |
| O=C(O)Cc1cnc(C(=O)c2ccc(NC(=O)C3CCC(c4ccc(Cl)cc4)CC3)cc2)c2ccccc12 (stereo not shown) [Example 82] | < 50 nM | < 50 nM | 2.8 nM |
| O=C(O)Cc1cnc(C(=O)c2ccc(NC(=O)/C=C/c3ccc(F)cc3)cc2)c2ccccc12 [Example 83] | < 50 nM | < 50 nM |  |
| O=C(O)Cc1cnc(C(=O)c2ccc(NC(=O)c3cc4cc(Cl)ccc4[nH]3)cc2)c2ccccc12 [Example 92] | < 50 nM | < 50 nM |  |
| CN(C(=O)c1ccc(Cl)c(Cl)c1)c1ccc(C(=O)c2ncc(CC(=O)O)c3ccccc23)cc1 [Example 128, {1-[(4-{[(3,4-dichlorophenyl)carbonyl](methyl)amino}phenyl)carbonyl]isoquinolin-4-yl}acetic acid] | 50 to 500 nM |  |  |
| O=C(O)Cc1cnc(C(=O)c2ccc(NS(=O)(=O)c3ccc(Cl)c(Cl)c3)cc2)c2ccccc12 [Example 129, {1-[(4-{[(3,4-dichlorophenyl)sulfonyl]amino}phenyl)carbonyl]isoquinolin-4-yl}acetic acid] | 50 to 500 nM |  |  |
| O=C(O)Cc1cnc(C(=O)c2ccc(NC(=O)Nc3ccc(Cl)c(Cl)c3)cc2)c2ccccc12 [Example 130, {1-[(4-{[(3,4-dichlorophenyl)carbamoyl]amino}phenyl)carbonyl]isoquinolin-4-yl}acetic acid] | < 50 nM | < 50 nM |  |
| O=C(O)Cc1cnc(C(=O)c2ccc(NC(=O)NCc3ccc(Cl)c(Cl)c3)cc2)c2ccccc12 [Example 132, {1-[(4-{[(3,4-dichlorobenzyl)carbamoyl]amino}phenyl)carbonyl]isoquinolin-4-yl}acetic acid] | < 50 nM | 50 to 500 nM |  |
| O=C(O)Cc1cnc(C(=O)c2ccc(NCc3ccc(Cl)c(Cl)c3)cc2)c2ccccc12 [Example 133, [1-({4-[(3,4-dichlorobenzyl)amino]phenyl}carbonyl)isoquinolin-4-yl]acetic acid] | < 50 nM | < 50 nM |  |
| O=C(O)Cc1cnc(C(=O)c2ccc(Cc3ccccc3)cc2)c2ccccc12 [Example 144, {1-[(4-benzyl phenyl)carbonyl]isoquinolin-4-yl}acetic acid] | 50 to 500 nM |  |  |

Results, then the compound that gave them:

| IC50 [1, 2] | IC50 (CRTH2 (KB8 cells)) | IC50 [1, 3] | Compound |
| --- | --- | --- | --- |
| < 50 nM | < 50 nM |  | O=C(O)Cc1cnc(C(=O)c2ccc(NC(=O)Cc3ccc(Cl)c(Cl)c3)cc2)c2ccccc12 [Example 3] |
| < 50 nM | < 50 nM |  | O=C(O)Cc1cnc(C(=O)c2ccc(NC(=O)CCc3ccc(Cl)c(Cl)c3)cc2)c2ccccc12 [Example 4] |
| < 50 nM | < 50 nM |  | O=C(O)Cc1cnc(C(=O)c2ccc(NC(=O)c3ccc(OC(F)(F)F)cc3)cc2)c2ccccc12 [Example 8] |
| < 50 nM | < 50 nM |  | O=C(O)Cc1cnc(C(=O)c2ccc(NC(=O)c3ccc(C(F)(F)F)cc3)cc2)c2ccccc12 [Example 11] |
| < 50 nM | ≥ 1000 nM |  | N#Cc1ccc(C(=O)Nc2ccc(C(=O)c3ncc(CC(=O)O)c4ccccc34)cc2)cc1 [Example 13] |
| < 50 nM | < 50 nM |  | O=C(O)Cc1cnc(C(=O)c2ccc(NC(=O)c3ccc4ccccc4c3)cc2)c2ccccc12 [Example 14] |
| < 50 nM | < 50 nM |  | O=C(O)Cc1cnc(C(=O)c2ccc(NC(=O)c3ccc([N+](=O)[O-])cc3)cc2)c2ccccc12 [Example 15] |
| < 50 nM | < 50 nM |  | Cc1ccc(C(=O)Nc2ccc(C(=O)c3ncc(CC(=O)O)c4ccccc34)cc2)cc1 [Example 17] |
| < 50 nM | < 50 nM |  | O=C(O)Cc1cnc(C(=O)c2ccc(NC(=O)COc3ccc(Cl)c(Cl)c3)cc2)c2ccccc12 [Example 23] |
| < 50 nM | < 50 nM | 3.4 nM | CCCCCc1ccc(C(=O)Nc2ccc(C(=O)c3ncc(CC(=O)O)c4ccccc34)cc2)cc1 [Example 57] |
| < 50 nM | < 50 nM | 2.9 nM | O=C(O)Cc1cnc(C(=O)c2ccc(NC(=O)c3cccc(Br)c3)cc2)c2ccccc12 [Example 75] |
| 50 to 500 nM |  |  | O=C(O)Cc1cnc(C(=O)c2cccc(NC(=O)c3ccc(Cl)c(Cl)c3)c2)c2ccccc12 [Example 127, {1-[(3-{[(3,4-dichlorophenyl)carbonyl]amino}phenyl)carbonyl]isoquinolin-4-yl}acetic acid] |
| < 50 nM | < 50 nM |  | O=C(O)Cc1cnc(C(=O)c2ccc(NC(=O)OCc3ccc(Cl)c(Cl)c3)cc2)c2ccccc12 [Example 131, (1-{[4-({[(3,4-dichlorobenzyl)oxy]carbonyl}amino)phenyl]carbonyl}isoquinolin-4-yl)acetic acid] |
| < 50 nM | 50 to 500 nM |  | O=C(O)Cc1cnc(C(=O)c2ccc(OCc3ccc(Cl)c(Cl)c3)cc2)c2ccccc12 [Example 134, [1-({4-[(3,4-dichlorobenzyl)oxy]phenyl}carbonyl)isoquinolin-4-yl]acetic acid] |
